Measured values as given in patent publication US20060111289A1, “Compositions and methods of using Alpha-fetoprotein growth inhibitory peptides” (Serometrix, LLC,, priority 2004, published 2006).

Experiments:
[1] = tested on: MCF-7 and 6WI-1 tumor cells; assay: Tumor cell adhesion to ECM proteins in microtiter plates; type: cell-based, human, murine
Description: FIG. 8 presents exemplary data showing the inhibition of P149 in the cellular adhesion of cancer cells to extracellular matrix (ECM) proteins for both human MCF-7 breast cancer cells and for murine 6WI-1 ascites-adapted mammary tumor cells. The cellular adhesion assay was performed in 96-well microtiter plates (Nunc Company, Denmark, catalog #263339) and the wells were pre-coated with 100 microliters of each of the above-mentioned ECM proteins for 24 hours as previously determined. After adding tumor cells, the plates were then incubated at 37° C. for various times; while 6WI-1 cells usually required only 2-4 hours incubation for adhesion; MCF-7 cells required 24 hours for attachment following trypsinization. For both cell lines, the cell culture media contained 5% calf serum to ensure cell attachment. The plates were washed twice with Hank's Saline, fixed in 0.5 mL of 37% formaldehyde, stained with crystal violet and read at […] on a microplate reader. Inset: Using a CyQUANT® stain kit, (Hoechst Corp., Germany) the plates were first exposed to a freeze/thaw cycle at −70° C. for 24 hours and 37° C. for 10 minutes. CyQUANT® buffer solution (150 microliters) was added to each well, and the cell adhesion was measured by fluorescence spectroscopy and quantitated using an ImageQuant® plate scanner (Fluorimager 595, Molecular Dynamics, Sunnyvale, Calif.).
This attachment of GIP was a slightly weaker adhesion matrix than was gelatin, chondroitin sulfate, and poly-lysine which approximated 30-35%. Using P149, the optimal amount of peptide required to inhibit tumor cell adhesion was determined by absorbing soluble peptide (1.0 pg to 100 μg) to the walls of microtiter plates. A constant number of MCF-7 tumor cells (i.e., for example, 1×10^5) were then added to the microtiter well and adhesion quantitated by fluorescence. […] The quantitation of MCF-7 and 6WI-1 cell adhesion in the presence of peptide versus peptide-free media was then determined on ECM-coated microtiter plates using 3 μg GIP/well as a competitive inhibitor. The P149 peptide was added to the wells immediately after the cells were dispensed and then the mixture was incubated as described. The AFP peptide was capable of cell adhesion inhibition in most of the ECM proteins in both tumor cell lines. Inhibition of mouse and human tumor cell adhesion was somewhat equivalent using collagen IV, fibrinogen, fibronectin, and thrombospondin. […] Thus, the GIP was found capable of eliciting different attachment inhibitions dependent on the type of ECM protein coating the wall of the microtiter plate and also the tumor cell type involved.

[2] = tested on: immature mouse uterine growth; assay: E2-activated immature mouse uterine growth assay; type: in vivo; set-up: % Inhibition Of Activity: Uterine Growth: concentration or dose not given beside the values; settings: mouse, in vivo
Description: FIG. 3 presents exemplary data showing the growth suppressive activities of the oligomeric forms of P149, cyclic versus linear, are depicted in various in vitro and in vivo models. Biological activity was determined by three growth-dependent bioassays, namely; • Panel-A and A1) an immature rodent uterine bioassay; • Panel-B and B 1) an in vitro MCF-7 foci assay; • Panel-C and C1) an in vitro tumor cell cytostatic assessment. […] See text for details. Scrambled peptide=P327. […]

[3] = tested on: human kidney tumor cell line
[4] = tested on: 6WI-1 mammary tumor cells; assay: 6WI-1 mammary tumor in 15-day old mouse pups (6 day assay); type: in vivo; set-up: % Inhibition Of Activity: 6WI-1 Pup Ascites: concentration or dose not given beside the values; settings: mouse pups
Text: As an alternative model of the 6WI-I mammary tumor in adult mice, an inocula of 1×10^6 tumor cells injected into 15-day old mouse pups provided a 6 day rather than a 12 day assay and replicated the same tumor growth suppression by GIP.

MCF-7 cells = assay: Estrogen-dependent MCF-7 foci formation assay; type: cell-based, human; set-up: % Inhibition Of Activity: MCF-7 foci formation: concentration or dose not given beside the values
Text: Mizejewski et al., “Alpha-fetoprotein derived synthetic peptides: assay of an estrogen-modifying regulatory segment” Mol Cell Endocrinol 118:15-23 (1996). The P149 peptide inhibited the formation of tumor cell foci formed as a result of the accumulation of breast cancer cells which clump together due to loss of contact inhibition.

[5] = tested on: 6WI-1 mammary tumor cells; assay: Mouse ascites mammary tumor assay (6WI-1 isograft); type: in vivo; settings: for Suppression of accumulation of cells and ascites fluid volume (anticancer activity): 1.0 μg peptide per day for 11 days; for % Inhibition Of Activity: 6WI-1 Acites Volume / % Inhibition Of Activity: 6WI-1 Body Weight / % Inhibition Of Activity: 6WI-1 Cell Prol: 6WI-1 mouse mammary ascites tumor
Description: The growth suppression of the mammary ascites tumor by AFP peptides and its fragments P149a, P149b and P149c, and control peptides were determined in non-estrogen dependent assays which measured tumor cell growth and ascites accumulation of 6WI-1 mammary transplanted NYLAR/nya mice. […] Tumor cell inocula included doses of 0.3, 1.0, and 3.0×10^6 cells which produced host mortality at 12-14 days which was lethal in 100% of the animals. Following peptide dose titration studies, mice inoculated with 6WI-1 mammary cells were injected with a previously-determined optimal dose of 1.0 μg peptide per day or saline for 11 days. On day 12 following inoculation, the total accumulated ascites fluid volume and tumor cells in the peritoneal cavity of each animal were harvested and the cell count determined.
Inoculation of mice with all three cell doses led to an increase in body weight from 25 g (day 0) to approximately […] by day 12, due to the accumulation of tumor cells and ascites fluid in the intraperitoneal cavity. An average cell count in accumulated ascites fluid on day 12 was greater than 10^8 cells/ml with a total ascites volume approximating 20 mls. Tumor cell proliferation in this model has been reported to correlate with the volume of ascites fluid accumulated.
The 6WI-1 mouse mammary tumor studies involving peptide and non-peptide treatment were further compared by histopathological analysis performed on hematoxylin/eosin stained tissue sections.

[6] = tested on: immature mouse uterine growth; assay: E2-activated immature mouse uterine growth assay; type: in vivo; set-up: concentration or dose not given beside the values
human platelets = assay: Platelet aggregation in human platelet-rich plasma; type: cell-based; set-up: % Inhibition Of Activity: Platelet Agg. ADP / % Inhibition Of Activity: Platelet Agg. AA / % Inhibition Of Activity: Platelet Agg. Coll: concentration or dose not given beside the values; settings: for % Inhibition Of Activity: Platelet Agg. ADP: ADP-induced; for % Inhibition Of Activity: Platelet Agg. AA: arachidonic acid-induced; for % Inhibition Of Activity: Platelet Agg. Coll: collagen-induced; for Inhibition (%) Of Platelet Aggregation, Adenosine Diphosphate (ADP) 2.5 μM / Inhibition (%) Of Platelet Aggregation, Arachidonic Acid (AA) 0.3 mM / Inhibition (%) Of Platelet Aggregation, Collagen (COLL) 2 μg/ml / Inhibition (%) Of Platelet Aggregation, Epinephrine: peptide inhibitors 30 & 100 μM
Description: FIG. 9 presents exemplary data showing platelet aggregation modulation using 0.5 ml of normal human platelet-rich plasma (PRP) with varying amounts of P149 or P 149b using 2.5×10^6 platelets per reaction vessel.
FIG. 10 presents exemplary data showing platelet aggregation activation by arachidonic acid (AA) and collagen using P149-treated platelet suspensions • Panel A1: AA alone; • Panel A2: AA followed by epinephine (EPI) and EPI alone using P149b; • Panel A3: CD62P flow cytometry fluorescence quenching by P149; • Panel B1: collagen alone and collagen+P149; • Panel B2: collagen alone; collagen+P149a showing aggregation diminution.
GIP-derived peptide fragments and/or subfragments have been assayed for platelet aggregation by measuring light transmissions with an aggregometer using a stirred human platelet suspension. Kinlough-Rathbone et al., In: Platelet Aggregation in Measurements of Platelet Function, Eds. Harker L A, Zimmerman T S., Churchill Livingstone, London. pp. 64-87 (1983); and Whittle et al., “Specificity between the anti-aggregatory actions of prostacyclin, prostaglandin Eland D2 on platelets” In: Mechanisms of stimulus—response coupling in platelets, Eds. V. V. K., MacIntyre D E, Scully M F., New York and London: Plenum Press. pp. 109-115 (1985).
The ability of GIP and its fragments were individually examined for aggregation inhibition using citrated human platelet-rich plasma (PRP). The peptides were freshly dissolved in 0.15 M NaCl containing 2.5×10^6 platelets/ml. […]

Estrogen fetotoxicity = assay: Estrogen fetotoxicity; set-up: concentration or dose not given beside the values; settings: in vivo

Sequence | % Inhibition Of Activity: Cell Adhesion [1] [%] | % Inhibition Of Activity: Uterine Growth [2] [%] | % Inhibition Of Activity: Kidney tumor growth [3] [%] | % Inhibition Of Activity: 6WI-1 Pup Ascites [4] [%] | % Inhibition Of Activity: MCF-7 foci formation (MCF-7 cells) [%] | Suppression of accumulation of cells and ascites fluid volume (anticancer activity) [5] | % Inhibition Of Activity: 6WI-1 Acites Volume [5] [%] | % Inhibition Of Activity: 6WI-1 Body Weight [5] [%] | % Inhibition Of Activity: 6WI-1 Cell Prol [5] [%] | % Inhibition Of Activity: Uterine Growth, Enzymatic Fragments [6] [%] | % Inhibition Of Activity: Platelet Agg. ADP (human platelets) [%] | % Inhibition Of Activity: Platelet Agg. AA (human platelets) [%] | % Inhibition Of Activity: Platelet Agg. Coll (human platelets) [%] | Inhibition (%) Of Platelet Aggregation, Adenosine Diphosphate (ADP) 2.5 μM (human platelets) | Inhibition (%) Of Platelet Aggregation, Arachidonic Acid (AA) 0.3 mM (human platelets) | Inhibition (%) Of Platelet Aggregation, Collagen (COLL) 2 μg/ml (human platelets) | Inhibition (%) Of Platelet Aggregation, Epinephrine (human platelets) | % Inhibition Of Activity: Estrogen Fetotoxicty (Estrogen fetotoxicity) [%] | further results
MTPVNPGV (listed as Homo sapiens) [P149c] | 56 | 42 | 19 | 29 | 45 | significantly suppressed | 39 | 44 | 45 | 44 | 0 | 0 | 0 | No effect | No effect | No effect | No effect | 37 | Inhibition of platelet aggregations induced by ADP and collagen (human platelets): no significant inhibition; Platelet aggregation inhibition (human platelets; inducer not specified): lack inhibitory capabilities
HPEAKRMPCAEDYLSVVLNQLCVLEHKTPVSDRV (listed as Homo sapiens) [P263, reference compound] | 0 | 0 | 0 | 0 | 0 | – | 10 | 13 | 5 | 0 | 0 | 0 | 0 | – | – | – | – | 0 | % Inhibition Of Activity: 6WI-1 Peptide Combos ([5]; peptide combination): 0%
LSEDKLLACGEG (listed as Homo sapiens) [P149a] | – | 28 | 25 | 21 | 33 | but not P149a or P149b, significantly suppressed | 21 | 22 | 28 | 24 | 40 | 0 | 0 | 30-40 (biphasic % | No effect | No effect | No effect | 63 | –
AADIIIGHLCIRHE (listed as Homo sapiens) [P149b] | 58 | 22 | 50 | 32 | 31 | but not P149a or P149b, significantly suppressed | 26 | 31 | 34 | 19 | 95 | 100 | 90 | 95-98% | 100% | 90% | No effect | 67 | Inhibition of ADP-induced platelet aggregation (FIG. 9) (human platelets; 0.5 ml PRP, 2.5×10^6 platelets per reaction vessel): 70%; Inhibition of ADP-induced platelet aggregation (human platelets; ADP 3 μM, P149 at 100-300 μM PRP): 80-90%; Inhibition of arachidonic acid (AA)-induced platelet aggregation (human platelets; for several minutes until epinephrine was added): complete aggregation inhibition
